Results from patent US12660840B2, “Composition containing polyphenol” (CJ CHEILJEDANG CORPORATION, priority 2019, dated 2026).
Marks after values point to notes of the source that are not given here.

Columns and labels:
[1] = Oxidation stability of lipid by Rancimat method; conditions: fish oil containing 2% of the polyphenol composition, 100° C., Table 9; for IP (min) induction period: air 20 L/hr; for AI Antioxidative Index: relative to lipid without composition
Procedure: Oxidation stability of lipid was analyzed by using the Rancimat (743 Metrohm Co., Herisau, Switzerland) method. 2.5 g of fish oil [Sigma-Aldrich Co. (St. Louis. MO, USA)] containing 2% of the polyphenol composition was put into a reaction vessel, and air was put at 20 L/hr into lipid on an aluminum heating block controlled at 100° C. to oxidize lipid. The volatile oxidation products generated during this time were transferred to an absorption vessel containing 60 mL of distilled water, and the degree of anti-oxidation was determined through the induction period automatically calculated in accordance with the change of electrical conductivity. For comparison of antioxidative activity, the Antioxidative Index (AI) was calculated by using a lipid sample with no addition of the polyphenol composition as a control group from the following formula: Further, L-ascorbic acid was used as a positive control. Antioxidative Index (AI)=IG/IC (IG: […])

polyphenol oxidase (PPO) = assay: Polyphenol oxidase (PPO) inhibitory activity; format: biochemical; conditions: pH 6.5, 25° C., catechin substrate, absorbance 420 nm; Table 11
Procedure: 1.7 mL of 50 mM phosphate buffer (pH 6.5) and 0.2 mL of PPO (4,276 units/mg) were mixed, and 0.1 mL of each polyphenol composition was added, and the mixture was left in a constant temperature water bath controlled at 25° C. for 15 minutes, and 1 mL of 4 mM catechin solution was added thereto as a substrate, respectively. Then, a change in absorbance for 5 minutes at 420 nm was measured by using a microplate reader (M2, Molecular Device, Canada). The enzyme inhibitory activity was expressed as absorbance reduction (%) represented by the following formula: Inhibition of PPO activity (%)=[1−(A/B)]×100 • [A: absorbance of sample, B: absorbance of blank solution]

[2] = DPPH radical scavenging activity; conditions: 10 minutes reaction, absorbance 517 nm; Table 7
Procedure: 4 mM of DPPH solution in ethanol was prepared and used after the absorbance was adjusted to 1.000±0.1. 0.2 mL of each sample was added to a test tube, 2.8 mL of DPPH solution was mixed and allowed to react for 10 minutes, and the absorbance was measured at 517 nm by using a microplate reader (M2, Molecular Device, Canada). L-ascorbic acid was used as a positive control. The DPPH radical scavenging activity was calculated from the following formula: DPPH radical scavenging activity (%)=[1−(A/B)]×100 • (A: absorbance of a group with addition of sample, B: absorbance of a group without addition of sample)

[3] = Trimethylamine (TMA) reducing effect, SPME-GC/MS; conditions: TMA 100 ppm standard aqueous solution; compositions T1-T6, 50 ppm of each polyphenol
Procedure: 30% concentration product of trimethylamine was purchased from Duksan Chemistry (Ansan, Republic of Korea) and used in the experiment. To determine the TMA-reducing effect, the standard reagent of 30% trimethylamine was diluted with distilled water to 100 ppm to prepare a standard aqueous solution. The prepared standard aqueous solution was used as a solvent to prepare a test polyphenol composition, and a trimethylamine-containing polyphenol composition sample was prepared and used for GC/MS analysis. The trimethylamine (TMA) component was determined from the polyphenol composition through the following method. […] The amount of TMA in the composition was calculated by comparing the peak area of 1.0 g of the sample and 1 g of 100 mg/L of TMA relative to each other and performing the comparative relative quantification of the contents of volatile aroma components in the sample. To determine the superiority of the combination of chlorogenic acid, caffeic acid, and quinic acid, the TMA reducing effect, which is known to be an effect of polyphenols, was evaluated. Specifically, the trimethylamine (TMA)-reducing effect was evaluated through the method of Experimental example 2 for each polyphenol composition prepared in Experimental example 1-2. […]

PPO (%) inhibition of PPO activity (polyphenol oxidase (PPO))	SMILES	IP (min) induction period [1]	AI Antioxidative Index [1]	DPPH (%) radical scavenging activity [2]	Reduction (%) of trimethylamine (TMA) [3] [%]
22.86 ± 0.70^a %	O=C1O[C@H]([C@@H](O)CO)C(O)=C1O [(+) control, L-ascorbic acid, reference compound]	90.53 ± 1.37^c min	1.22 ± 0.03^c	81.07 ± 0.59^a %	
19.47 ± 0.75^c %	O=C(O)[C@]1(O)C[C@@H](O)[C@@H](O)[C@H](O)C1 [Composition T3, Quinic acid]	77.23 ± 1.05^e min	1.04 ± 0.01^e	0.60 ± 1.04^e %	57.66
